In ChEMBL document CHEMBL1142376, “Novel CADD-based peptidyl vinyl ester derivatives as potential proteasome inhibitors” (Bioorg Med Chem Lett, 2008):

Experiments:
[1] = test system: BGC-823; test: Antiproliferative activity against human BGC823 cells at 10 umole; type: functional
[2] = test system: Bel-7402; test: Antiproliferative activity against human Bel7402 cells at 10 umole; type: functional
[3] = Inhibition of post acidic-like activity of 20S proteasome
[4] = test system: HL-60; test: Antiproliferative activity against human HL60 cells at 10 umole; type: functional
[5] = Inhibition of chymotrypsin-like activity of 20S proteasome
[6] = test system: KB; test: Antiproliferative activity against human KB cells at 10 umole; type: functional
[7] = Inhibition of trypsin-like activity of 20S proteasome

## CCOC(=O)/C=C/[C@H](C[C@@H]1CCNC1=O)NC(=O)[C@@H](NC(=O)[C@@H](NC(=O)OC(C)(C)C)[C@@H](C)CC)[C@@H](C)O
[1]
  Activity: 0.69%
[2]
  Activity: -16.67%
[3]
  IC50: > 100 µmol
[4]
  Activity: 0.71%
[5]
  IC50: > 100 µmol
[6]
  Activity: -10.29%
[7]
  IC50: > 100 µmol

## CCOC(=O)/C=C/[C@H](Cc1ccc(O)cc1)NC(=O)[C@H](CO)NC(=O)[C@@H](NC(=O)OC(C)(C)C)C(C)C
[1]
  Activity: 22.59%
[2]
  Activity: 3.39%
[3]
  IC50: > 100 µmol
[4]
  Activity: 26.73%
[5]
  IC50: > 100 µmol
[6]
  Activity: 7.44%
[7]
  IC50: > 100 µmol

## CC(C)(C)OC(=O)N[C@@H](Cc1ccccc1)C(=O)N[C@@H](CO)C(=O)N[C@H](/C=C/C(=O)O)Cc1ccc(O)cc1
[1]
  Activity: 10.28%
[2]
  Activity: 3.39%
[3]
  IC50: > 100 µmol
[4]
  Activity: 13.37%
[5]
  IC50: > 100 µmol
[6]
  Activity: 7.44%
[7]
  IC50: > 100 µmol

## CCOC(=O)/C=C/[C@H](Cc1ccc(O)cc1)NC(=O)[C@H](Cc1ccccc1)NC(=O)OC(C)(C)C
[1]
  Activity: 33.88%
[2]
  Activity: 12.68%
[3]
  IC50: > 100 µmol
[4]
  Activity: 23.66%
[5]
  IC50: > 100 µmol
[6]
  Activity: -0.7%
[7]
  IC50: > 100 µmol

## CCOC(=O)/C=C/[C@H](C[C@@H]1CCNC1=O)NC(=O)[C@H](CO)NC(=O)[C@@H](NC(=O)OC(C)(C)C)C(C)C
[1]
  Activity: 5.52%
[2]
  Activity: -4.98%
[3]
  IC50: > 100 µmol
[4]
  Activity: -1.94%
[5]
  IC50: > 100 µmol
[6]
  Activity: -3.45%
[7]
  IC50: > 100 µmol

## CC(C)(C)OC(=O)N[C@@H](CO)C(=O)N[C@H](/C=C/C(=O)O)Cc1ccc(O)cc1
[1]
  Activity: 22.56%
[2]
  Activity: -5.91%
[3]
  IC50: > 100 µmol
[4]
  Activity: 19.26%
[5]
  IC50: > 100 µmol
[6]
  Activity: -15.49%
[7]
  IC50: > 100 µmol

## CCOC(=O)/C=C/[C@H](Cc1ccccc1)NC(=O)[C@@H](NC(=O)[C@@H](NC(=O)OC(C)(C)C)[C@@H](C)CC)[C@@H](C)O
[1]
  Activity: 13.62%
[2]
  Activity: -1.79%
[3]
  IC50: > 100 µmol
[4]
  Activity: 8.17%
[5]
  IC50: > 100 µmol
[6]
  Activity: 10.75%
[7]
  IC50: > 100 µmol

## CCOC(=O)/C=C/[C@H](Cc1ccc(O)cc1)NC(=O)[C@@H](NC(=O)OC(C)(C)C)[C@@H](C)CC
[1]
  Activity: 23.06%
[2]
  Activity: 3.32%
[3]
  IC50: > 100 µmol
[4]
  Activity: 21.66%
[5]
  IC50: > 100 µmol
[6]
  Activity: 5.27%
[7]
  IC50: > 100 µmol

## CCOC(=O)/C=C/[C@H](C[C@@H]1CCNC1=O)NC(=O)[C@H](CC(C)C)NC(=O)[C@H](CO)NC(=O)[C@H](Cc1ccccc1)NC(=O)OC(C)(C)C
[1]
  Activity: 14.25%
[2]
  Activity: -0.39%
[3]
  IC50: > 100 µmol
[4]
  Activity: 4.94%
[5]
  IC50: > 100 µmol
[6]
  Activity: -4.17%
[7]
  IC50: > 100 µmol

## CCOC(=O)/C=C/[C@H](C[C@@H]1CCNC1=O)NC(=O)[C@H](CC(C)C)NC(=O)[C@H](CC(C)C)NC(=O)[C@H](CC(C)C)NC(=O)OC(C)(C)C
[1]
  Activity: 16.14%
[2]
  Activity: 12.02%
[3]
  IC50: > 100 µmol
[4]
  Activity: 17.17%
[5]
  IC50: 48.31 µmol
[6]
  Activity: 15.73%
[7]
  IC50: > 100 µmol

## CCOC(=O)/C=C/[C@H](C[C@@H]1CCNC1=O)NC(=O)[C@H](CC(C)C)NC(=O)[C@H](CC(C)C)NC(=O)OC(C)(C)C
[1]
  Activity: 21.44%
[2]
  Activity: -2.4%
[3]
  IC50: > 100 µmol
[4]
  Activity: 36.97%
[5]
  IC50: > 100 µmol
[6]
  Activity: -14.03%
[7]
  IC50: > 100 µmol

## CCOC(=O)/C=C/[C@H](Cc1ccc(O)cc1)NC(=O)[C@H](CC(C)C)NC(=O)OC(C)(C)C
[1]
  Activity: 17.01%
[2]
  Activity: -10.27%
[3]
  IC50: > 100 µmol
[4]
  Activity: 5.87%
[5]
  IC50: > 100 µmol
[6]
  Activity: 1.72%
[7]
  IC50: > 100 µmol

## CCOC(=O)/C=C/[C@H](Cc1ccccc1)NC(=O)[C@H](CC(C)C)NC(=O)[C@H](CC(C)C)NC(=O)OC(C)(C)C
[1]
  Activity: 9.95%
[2]
  Activity: -12.87%
[3]
  IC50: > 100 µmol
[4]
  Activity: 6.13%
[5]
  IC50: > 100 µmol
[6]
  Activity: -1.67%
[7]
  IC50: > 100 µmol

## CCOC(=O)/C=C/[C@H](C[C@@H]1CCNC1=O)NC(=O)[C@H](CC(C)C)NC(=O)[C@@H](NC(=O)[C@@H](NC(=O)OC(C)(C)C)[C@@H](C)CC)[C@@H](C)O
[1]
  Activity: 19.98%
[2]
  Activity: -0.31%
[3]
  IC50: > 100 µmol
[4]
  Activity: -2.32%
[5]
  IC50: > 100 µmol
[6]
  Activity: 4.3%
[7]
  IC50: > 100 µmol
